Among the test systems are CAKI-1; SN12C; MDA-MB-435; COLO 205; RPMI-8226; TK-10; CCRF-CEM; NCI-H522; SK-MEL-5; SF-539; 786-0; OVCAR-5; HCT-15; NCI/ADR-RES; UACC-62; SNB-19; LOX IMVI; T47D; OVCAR-8; IGROV-1.
Experiment in all cases: NCI anticancer screen, dose series, 48 h

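Protocol summary: plate cells (96-well), add compound at 5 concentrations, incubate 48 h, interpolate endpoints linearly. Abbreviation: GI50, concentration required for 50% inhibition of growth.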 The source made the active and inactive calls. Cut-off read from the data, not from the text of the source: active = GI50 up to about 1.1 µM and inactive = higher.

`CC12CC(=O)C3C(CCC4=CC(=O)CCC43C)C1CC=C2CC(=O)O` (stereo not given): the GI50 with CAKI-1, in the experiment with SN12C, with MDA-MB-435, in the experiment with COLO 205, in the experiment on RPMI-8226 and in the experiment on TK-10 was > 100 µM (inactive) throughout. Besides, the GI50 in the experiment with CCRF-CEM, with NCI-H522, in the experiment on SK-MEL-5, in the experiment on SF-539, in the experiment on 786-0 and in the experiment on OVCAR-5 was > 100 µM (inactive) in each case. The GI50 in the experiment with HCT-15 is greater than 100 µM; in the experiment with NCI/ADR-RES it was > 100 µM (inactive); in the experiment with UACC-62, > 100 µM (inactive); with SNB-19, > 100 µM (inactive); with LOX IMVI it was > 100 µM (inactive); with T47D, > 100 µM (inactive). The GI50 in the experiment on OVCAR-8 and with IGROV-1 was > 100 µM (inactive) in each case.

For the compound `Cc1cc2c(SCc3ccccc3Cl)nc(N)nc2nc1C`, the GI50 in the experiment with CAKI-1, in the experiment with SN12C, in the experiment with MDA-MB-435, with COLO 205, in the experiment on RPMI-8226 and in the experiment on TK-10 was > 100 µM (inactive) each time. Also, the GI50 with CCRF-CEM was > 100 µM (inactive); in the experiment with NCI-H522 it was 21.4 µM (inactive); in the experiment on SK-MEL-5, > 100 µM (inactive); in the experiment with SF-539, > 100 µM (inactive); in the experiment with 786-0, > 100 µM (inactive); in the experiment with OVCAR-5, > 100 µM (inactive). Moreover, the GI50 with HCT-15 was greater than 100 µM; with NCI/ADR-RES it was > 100 µM (inactive); in the experiment on UACC-62 it was > 100 µM (inactive); with SNB-19 it was > 100 µM (inactive); in the experiment on LOX IMVI, > 100 µM (inactive); in the experiment with T47D it was > 100 µM (inactive). Besides, the GI50 with OVCAR-8 and in the experiment with IGROV-1 was > 100 µM (inactive) in each case.

For the compound `Nc1nc(-c2cccs2)cs1`, the GI50 in the experiment on CAKI-1 is > 100 µM (inactive); with SN12C it was > 100 µM (inactive); with MDA-MB-435, 79.8 µM (inactive); with COLO 205 it was 88.1 µM (inactive); with RPMI-8226, 90.8 µM (inactive); with TK-10, 87.9 µM (inactive). Besides, the GI50 is 29 µM (inactive) in the experiment on CCRF-CEM; 34.9 µM (inactive) in the experiment on NCI-H522; 73.3 µM (inactive) with SK-MEL-5; > 100 µM (inactive) with SF-539; > 100 µM (inactive) in the experiment with 786-0; > 100 µM (inactive) in the experiment on OVCAR-5. Further, the GI50 in the experiment with HCT-15 was 83.4 µM; in the experiment with NCI/ADR-RES, 91 µM (inactive); with UACC-62, 83.9 µM (inactive); in the experiment with SNB-19, > 100 µM (inactive); in the experiment on LOX IMVI, 79.1 µM (inactive); in the experiment with T47D it was 66.8 µM (inactive). In addition, the values for the GI50 in the experiment on OVCAR-8 and in the experiment on IGROV-1 were 58.7 µM (inactive) and 47.3 µM (inactive), respectively.

For the compound `O=C1N/C(=N/N=C/c2ccccc2)N/C1=C\c1c[nH]c2ccccc12`, the GI50 was > 100 µM (inactive) with CAKI-1; 29.2 µM (inactive) in the experiment with SN12C; > 100 µM (inactive) with MDA-MB-435; 60.7 µM (inactive) with COLO 205; 7.52 µM (inactive) with RPMI-8226; > 100 µM (inactive) with TK-10. For the same compound, the GI50 in the experiment on CCRF-CEM was 11.4 µM (inactive); with NCI-H522, 74.3 µM (inactive); in the experiment with SK-MEL-5 it was > 100 µM (inactive); in the experiment on SF-539, > 100 µM (inactive); in the experiment with 786-0 it was 41.5 µM (inactive); with OVCAR-5, > 100 µM (inactive). The GI50 with HCT-15 is greater than 100 µM; with NCI/ADR-RES it was > 100 µM (inactive); with UACC-62 it was > 100 µM (inactive); in the experiment with SNB-19, 22.8 µM (inactive); in the experiment with LOX IMVI, 44.1 µM (inactive); in the experiment with T47D, > 100 µM (inactive). In addition, the GI50 was 38.2 µM (inactive) in the experiment with OVCAR-8 and > 100 µM (inactive) in the experiment with IGROV-1.

Turning to `Cc1ccc2c(c1)C=CC(C#N)N2C(=O)Oc1ccccc1` (stereo not given), the GI50 with CAKI-1 was 57.4 µM (inactive); in the experiment with SN12C, 35.8 µM (inactive); in the experiment on MDA-MB-435, 14.5 µM (inactive); in the experiment with COLO 205 it was 25.9 µM (inactive); in the experiment with RPMI-8226 it was 17.9 µM (inactive); in the experiment with TK-10, 31 µM (inactive). Further, the GI50 with CCRF-CEM was 17.2 µM (inactive); in the experiment with NCI-H522 it was 16.3 µM (inactive); in the experiment with SK-MEL-5, 24.3 µM (inactive); in the experiment with SF-539, 60.7 µM (inactive); in the experiment on 786-0 it was 43.7 µM (inactive); in the experiment with OVCAR-5 it was 61.4 µM (inactive). Also, the GI50 in the experiment on HCT-15 was 21.1 µM; with NCI/ADR-RES, 20.2 µM (inactive); in the experiment on UACC-62, 31.4 µM (inactive); with SNB-19 it was 31.8 µM (inactive); in the experiment on LOX IMVI it was 20.6 µM (inactive); with T47D, 20.8 µM (inactive). In addition, the GI50 in the experiment on OVCAR-8 was 17.4 µM (inactive); in the experiment with IGROV-1, 36 µM (inactive).

`CNCCCNC(=S)Cn1cc(C)c(=O)[nH]c1=O`: the GI50 in the experiment with CAKI-1 is 24.9 µM (inactive); in the experiment on SN12C it was > 100 µM (inactive); with MDA-MB-435, > 26.1 µM (inactive); in the experiment with COLO 205, > 48.8 µM (inactive); with RPMI-8226, > 100 µM (inactive); with TK-10, > 64.7 µM (inactive). Further, the GI50 is > 30.6 µM (inactive) in the experiment with CCRF-CEM; > 53.6 µM (inactive) in the experiment on NCI-H522; > 21.3 µM (inactive) with SK-MEL-5; > 20.1 µM (inactive) with SF-539; > 44.3 µM (inactive) in the experiment with 786-0; > 69.5 µM (inactive) in the experiment on OVCAR-5. For the same compound, the GI50 in the experiment with HCT-15 is greater than 42.7 µM; with NCI/ADR-RES, > 57.8 µM (inactive); in the experiment with UACC-62, > 47.4 µM (inactive); in the experiment on SNB-19, > 91.2 µM (inactive); with LOX IMVI, > 34.2 µM (inactive); in the experiment with T47D, > 100 µM (inactive). The GI50 was > 26.6 µM (inactive) in the experiment with OVCAR-8 and > 39.5 µM (inactive) in the experiment on IGROV-1.

For the compound `CO[C@@]12C[C@@H](CNC(=O)c3cc(Br)c[nH]3)O[C@@H]1NC(=O)N2`, the GI50 with CAKI-1, in the experiment on SN12C, with MDA-MB-435, with COLO 205, in the experiment on RPMI-8226 and in the experiment with TK-10 was > 100 µM (inactive) each time. The GI50 with CCRF-CEM, with NCI-H522, in the experiment on SK-MEL-5, in the experiment on SF-539, in the experiment with 786-0 and with OVCAR-5 was > 100 µM (inactive) in each case. For the same compound, the GI50 in the experiment on HCT-15 was greater than 100 µM; in the experiment with NCI/ADR-RES, > 100 µM (inactive); in the experiment on UACC-62, > 100 µM (inactive); in the experiment on SNB-19, > 100 µM (inactive); in the experiment with LOX IMVI it was > 100 µM (inactive); with T47D, > 100 µM (inactive). The GI50 in the experiment with OVCAR-8 and in the experiment with IGROV-1 was > 100 µM (inactive) throughout.

For the compound `N#CC1CNC(N)NC1N` (stereo not given), the GI50 in the experiment on CAKI-1, with SN12C, in the experiment on MDA-MB-435, in the experiment on COLO 205, in the experiment on RPMI-8226 and in the experiment with TK-10 was > 100 µM (inactive) in each case. For the same compound, the GI50 is < 0.01 µM (active) with CCRF-CEM; > 100 µM (inactive) in the experiment on NCI-H522; > 100 µM (inactive) in the experiment with SK-MEL-5; > 100 µM (inactive) with SF-539; > 100 µM (inactive) in the experiment on 786-0; > 100 µM (inactive) with OVCAR-5. Also, the GI50 in the experiment on HCT-15 was greater than 100 µM; with NCI/ADR-RES, > 100 µM (inactive); in the experiment with UACC-62, > 100 µM (inactive); with SNB-19 it was > 100 µM (inactive); in the experiment with LOX IMVI it was > 100 µM (inactive); with T47D, > 100 µM (inactive). Further, the GI50 in the experiment on OVCAR-8 and in the experiment on IGROV-1 was > 100 µM (inactive) in each case.

For the compound `CCc1nc(N)nc(N)c1-c1ccc([N+](=O)[O-])c(Cl)c1`, the GI50 with CAKI-1 is 4.55 µM (inactive); in the experiment on SN12C, 13.3 µM (inactive); with MDA-MB-435, 1.99 µM (inactive); in the experiment with COLO 205 it was 12.5 µM (inactive); in the experiment on RPMI-8226, 8.36 µM (inactive); with TK-10 it was 24.9 µM (inactive). Besides, the GI50 in the experiment on CCRF-CEM is 2.36 µM (inactive); in the experiment on NCI-H522, 6.1 µM (inactive); in the experiment on SK-MEL-5 it was 2.19 µM (inactive); in the experiment on SF-539, 3.76 µM (inactive); in the experiment on 786-0, 1.77 µM (inactive); with OVCAR-5 it was 25.2 µM (inactive). Besides, the GI50 with HCT-15 is 1.35 µM; in the experiment with NCI/ADR-RES, 5.83 µM (inactive); in the experiment on UACC-62, 1.73 µM (inactive); in the experiment with SNB-19, 17.9 µM (inactive); in the experiment with LOX IMVI, 1.44 µM (inactive); with T47D it was 39.5 µM (inactive). Moreover, the GI50 in the experiment with OVCAR-8 was 3.7 µM (inactive); with IGROV-1, 3.31 µM (inactive).

`O=[N+]([O-])/C=C/c1ccc2ccccc2c1`: the GI50 in the experiment on CAKI-1 is 8.43 µM (inactive); in the experiment with SN12C it was 5.64 µM (inactive); in the experiment on MDA-MB-435, 2.04 µM (inactive); in the experiment on COLO 205, 2.29 µM (inactive); in the experiment on RPMI-8226, 0.372 µM (active); in the experiment on TK-10, 6.21 µM (inactive). Further, the GI50 with CCRF-CEM was 4.61 µM (inactive); in the experiment on NCI-H522, 9.68 µM (inactive); in the experiment on SK-MEL-5 it was 3.19 µM (inactive); in the experiment on SF-539, 3.04 µM (inactive); in the experiment on 786-0 it was 2.85 µM (inactive); in the experiment with OVCAR-5, 3.52 µM (inactive). The GI50 in the experiment on HCT-15 was 2.22 µM; in the experiment on NCI/ADR-RES, 4.27 µM (inactive); in the experiment on UACC-62, 15.4 µM (inactive); with SNB-19, 2.19 µM (inactive); in the experiment with LOX IMVI, 1.87 µM (inactive); in the experiment with T47D it was 0.692 µM (active). The GI50 in the experiment with OVCAR-8 was 2.69 µM (inactive); in the experiment with IGROV-1 it was 2.79 µM (inactive).

For the origin of these results see ChEMBL document CHEMBL1201862, “PubChem BioAssay data set” (2004).
